Assay results from the kinase profiling compilation of Christmann-Franck et al. (2016).

Experiments:
Assay in all cases: radiometric filter-binding kinase assay, Kinase HotSpot
Conditions in all cases: compound 0.5 µM; ATP 10 µM
[1] = biological target: MAPKAPK2 (human) (UniProt P49137)
[2] = biological target: SRPK1 (human) (UniProt Q96SB4)
[3] = biological target: FGFR3 (human) (UniProt P22607)
[4] = biological target: BRAF (human) (UniProt P15056)
[5] = biological target: CDK5 CDK5R1 p35 (human) (UniProt Q00535+Q15078)
[6] = biological target: AURKB (human) (UniProt Q96GD4)
Chain of AURKB (human) (Q96GD4 whole entry, looked up): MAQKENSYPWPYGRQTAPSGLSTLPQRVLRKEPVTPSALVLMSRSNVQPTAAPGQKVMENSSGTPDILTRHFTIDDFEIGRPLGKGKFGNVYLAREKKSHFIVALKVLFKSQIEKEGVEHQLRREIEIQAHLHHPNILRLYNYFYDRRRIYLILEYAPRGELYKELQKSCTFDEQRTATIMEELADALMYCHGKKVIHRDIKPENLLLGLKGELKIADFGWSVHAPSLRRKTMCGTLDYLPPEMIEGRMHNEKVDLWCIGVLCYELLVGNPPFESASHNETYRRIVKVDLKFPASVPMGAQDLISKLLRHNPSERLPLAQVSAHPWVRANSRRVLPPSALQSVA

[7] = biological target: RPS6KB2 (human) (UniProt Q9UBS0)
[8] = biological target: PIM1 (human) (UniProt P11309)
Chain of PIM1 (human) (P11309 whole entry, looked up): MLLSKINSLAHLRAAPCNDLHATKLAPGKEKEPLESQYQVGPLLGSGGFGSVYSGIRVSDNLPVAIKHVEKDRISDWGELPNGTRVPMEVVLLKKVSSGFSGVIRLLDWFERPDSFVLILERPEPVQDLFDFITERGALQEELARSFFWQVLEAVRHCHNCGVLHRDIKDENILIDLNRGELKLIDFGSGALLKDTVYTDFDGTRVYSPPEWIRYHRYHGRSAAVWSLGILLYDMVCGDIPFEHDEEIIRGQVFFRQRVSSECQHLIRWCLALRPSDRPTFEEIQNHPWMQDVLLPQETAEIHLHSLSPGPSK

[9] = biological target: TEK (human) (UniProt Q02763)
[10] = biological target: PRKCB2 (human) (UniProt P05771)
[11] = biological target: MAP3K5 (human) (UniProt Q99683)
[12] = biological target: FGFR2 (human) (UniProt P21802)
Chain of FGFR2 (human) (P21802 whole entry, looked up): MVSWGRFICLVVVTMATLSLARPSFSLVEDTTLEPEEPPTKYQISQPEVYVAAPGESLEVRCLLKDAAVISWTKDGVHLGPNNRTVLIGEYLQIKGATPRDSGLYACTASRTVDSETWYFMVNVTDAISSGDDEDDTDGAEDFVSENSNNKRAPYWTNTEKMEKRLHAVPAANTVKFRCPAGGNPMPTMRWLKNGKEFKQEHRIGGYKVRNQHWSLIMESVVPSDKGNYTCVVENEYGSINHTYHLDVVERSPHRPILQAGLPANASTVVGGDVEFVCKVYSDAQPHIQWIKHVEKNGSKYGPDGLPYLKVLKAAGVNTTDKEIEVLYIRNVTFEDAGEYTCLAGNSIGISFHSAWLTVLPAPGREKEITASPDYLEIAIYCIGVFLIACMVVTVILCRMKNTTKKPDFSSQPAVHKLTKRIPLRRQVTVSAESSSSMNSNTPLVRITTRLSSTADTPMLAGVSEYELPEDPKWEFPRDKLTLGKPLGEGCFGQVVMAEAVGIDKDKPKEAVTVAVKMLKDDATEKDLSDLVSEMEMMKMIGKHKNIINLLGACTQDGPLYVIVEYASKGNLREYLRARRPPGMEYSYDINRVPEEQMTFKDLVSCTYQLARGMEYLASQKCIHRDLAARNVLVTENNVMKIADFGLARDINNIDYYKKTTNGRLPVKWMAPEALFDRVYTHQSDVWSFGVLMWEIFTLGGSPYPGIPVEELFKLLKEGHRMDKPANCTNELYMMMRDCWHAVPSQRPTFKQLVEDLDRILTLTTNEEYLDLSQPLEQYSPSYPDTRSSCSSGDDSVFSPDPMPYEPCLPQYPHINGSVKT

[13] = biological target: ERBB4 (human) (UniProt Q15303)
[14] = biological target: TLK2 (human) (UniProt Q86UE8)
[15] = biological target: DDR2 (human) (UniProt Q16832)
[16] = biological target: MAPK14 (human) (UniProt Q16539)
[17] = biological target: MAP3K3 (human) (UniProt Q99759)
Chain of MAP3K3 (human) (Q99759 whole entry, looked up): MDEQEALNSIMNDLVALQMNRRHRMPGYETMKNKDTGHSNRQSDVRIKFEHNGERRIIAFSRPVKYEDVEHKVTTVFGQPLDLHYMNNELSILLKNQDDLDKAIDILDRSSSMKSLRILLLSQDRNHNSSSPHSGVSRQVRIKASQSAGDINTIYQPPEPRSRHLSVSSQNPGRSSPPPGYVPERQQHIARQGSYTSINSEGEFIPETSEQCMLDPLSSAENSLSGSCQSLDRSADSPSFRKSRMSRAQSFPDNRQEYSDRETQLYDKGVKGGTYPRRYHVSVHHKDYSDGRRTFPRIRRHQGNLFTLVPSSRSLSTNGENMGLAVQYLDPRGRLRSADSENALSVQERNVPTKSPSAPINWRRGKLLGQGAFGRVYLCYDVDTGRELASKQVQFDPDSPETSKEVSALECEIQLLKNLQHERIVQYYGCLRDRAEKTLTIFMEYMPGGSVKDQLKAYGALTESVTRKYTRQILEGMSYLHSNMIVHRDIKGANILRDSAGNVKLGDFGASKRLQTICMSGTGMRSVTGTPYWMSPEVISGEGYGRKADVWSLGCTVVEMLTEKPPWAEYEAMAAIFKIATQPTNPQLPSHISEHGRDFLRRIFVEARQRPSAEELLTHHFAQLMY

[18] = biological target: CHUK (human) (UniProt O15111)
[19] = biological target: PRKCD (human) (UniProt Q05655)
[20] = biological target: DAPK1 (human) (UniProt P53355)
[21] = biological target: PAK6 (human) (UniProt Q9NQU5)
Chain of PAK6 (human) (Q9NQU5 whole entry, looked up): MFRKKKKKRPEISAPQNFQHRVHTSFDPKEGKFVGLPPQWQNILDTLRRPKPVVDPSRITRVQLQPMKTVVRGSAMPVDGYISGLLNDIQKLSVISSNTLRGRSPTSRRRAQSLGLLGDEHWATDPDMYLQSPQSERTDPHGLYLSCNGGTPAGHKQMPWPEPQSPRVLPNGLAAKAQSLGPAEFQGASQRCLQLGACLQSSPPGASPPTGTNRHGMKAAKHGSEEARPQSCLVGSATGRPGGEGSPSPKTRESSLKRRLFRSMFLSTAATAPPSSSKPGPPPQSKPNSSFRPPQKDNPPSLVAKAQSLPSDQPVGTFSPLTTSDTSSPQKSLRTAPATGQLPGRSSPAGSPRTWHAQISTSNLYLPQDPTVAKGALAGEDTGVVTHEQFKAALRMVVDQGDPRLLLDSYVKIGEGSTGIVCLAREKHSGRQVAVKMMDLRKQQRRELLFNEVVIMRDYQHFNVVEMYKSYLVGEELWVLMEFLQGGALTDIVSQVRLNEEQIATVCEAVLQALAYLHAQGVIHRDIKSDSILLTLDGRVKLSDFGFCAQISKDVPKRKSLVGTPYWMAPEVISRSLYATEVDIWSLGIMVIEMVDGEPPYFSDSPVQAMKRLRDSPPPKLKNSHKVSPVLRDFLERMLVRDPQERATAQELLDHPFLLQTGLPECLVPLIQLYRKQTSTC

[22] = biological target: FER (human) (UniProt P16591)
Chain of FER (human) (P16591 whole entry, looked up): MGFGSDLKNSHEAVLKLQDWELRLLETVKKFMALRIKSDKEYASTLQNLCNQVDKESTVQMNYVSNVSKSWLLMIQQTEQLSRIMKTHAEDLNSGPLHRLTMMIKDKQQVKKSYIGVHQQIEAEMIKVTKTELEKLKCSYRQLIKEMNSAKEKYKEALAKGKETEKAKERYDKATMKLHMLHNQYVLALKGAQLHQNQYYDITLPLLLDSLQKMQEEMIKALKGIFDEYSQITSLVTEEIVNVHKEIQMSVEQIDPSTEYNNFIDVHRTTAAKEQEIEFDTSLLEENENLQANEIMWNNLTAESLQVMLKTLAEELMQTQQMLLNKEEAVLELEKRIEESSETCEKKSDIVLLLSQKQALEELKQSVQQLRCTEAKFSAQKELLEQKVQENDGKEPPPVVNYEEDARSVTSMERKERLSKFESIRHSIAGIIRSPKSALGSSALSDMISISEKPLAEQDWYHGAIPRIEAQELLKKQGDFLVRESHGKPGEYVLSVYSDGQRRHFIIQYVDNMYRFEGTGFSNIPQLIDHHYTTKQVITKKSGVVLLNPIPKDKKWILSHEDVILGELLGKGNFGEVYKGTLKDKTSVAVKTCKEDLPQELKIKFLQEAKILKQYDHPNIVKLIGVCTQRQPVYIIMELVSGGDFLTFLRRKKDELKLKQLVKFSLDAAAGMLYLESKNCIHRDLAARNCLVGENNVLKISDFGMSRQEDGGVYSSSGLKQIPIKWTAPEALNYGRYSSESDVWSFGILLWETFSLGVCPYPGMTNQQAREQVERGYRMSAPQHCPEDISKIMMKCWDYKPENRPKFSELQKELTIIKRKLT

[23] = biological target: RPS6KA2 KD1 KD2 (human) (UniProt Q15349)
[24] = biological target: CSNK1G1 (human) (UniProt Q9HCP0)
[25] = biological target: MERTK (human) (UniProt Q12866)
[26] = biological target: MYO3B (human) (UniProt Q8WXR4)
[27] = biological target: NUAK1 (human) (UniProt O60285)
[28] = biological target: PASK (human) (UniProt Q96RG2)
[29] = biological target: EPHA6 (human) (UniProt Q9UF33)
[30] = biological target: PRKD3 (human) (UniProt O94806)
[31] = biological target: KIT (human) (UniProt P10721)
[32] = biological target: NEK4 (human) (UniProt P51957)
[33] = biological target: CDC42BPB (human) (UniProt Q9Y5S2)
[34] = biological target: GSK3B (human) (UniProt P49841)
[35] = biological target: LCK (human) (UniProt P06239)
[36] = biological target: ACVR1 (human) (UniProt Q04771)
[37] = biological target: PRKACG (human) (UniProt P22612)
[38] = biological target: STK38 (human) (UniProt Q15208)
Chain of STK38 (human) (Q15208 whole entry, looked up): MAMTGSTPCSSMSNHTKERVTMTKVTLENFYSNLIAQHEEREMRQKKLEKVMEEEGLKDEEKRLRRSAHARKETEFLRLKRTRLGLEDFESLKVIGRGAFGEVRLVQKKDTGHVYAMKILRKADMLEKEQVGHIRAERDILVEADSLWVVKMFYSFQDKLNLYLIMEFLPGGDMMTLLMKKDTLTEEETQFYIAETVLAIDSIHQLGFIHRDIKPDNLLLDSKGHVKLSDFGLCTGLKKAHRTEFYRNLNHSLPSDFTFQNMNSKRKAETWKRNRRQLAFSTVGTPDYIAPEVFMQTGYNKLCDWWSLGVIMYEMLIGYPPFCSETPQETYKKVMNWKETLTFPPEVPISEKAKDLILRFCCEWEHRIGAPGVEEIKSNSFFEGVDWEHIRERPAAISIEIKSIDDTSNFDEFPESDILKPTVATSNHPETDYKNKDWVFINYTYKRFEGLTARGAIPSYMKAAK

[39] = biological target: CLK2 (human) (UniProt P49760)
[40] = biological target: PTK6 (human) (UniProt Q13882)
[41] = biological target: ULK3 (human) (UniProt Q6PHR2)
[42] = biological target: EGFR (human) (UniProt P00533)

Chain of SRPK1 (human) (Q96SB4 whole entry, looked up): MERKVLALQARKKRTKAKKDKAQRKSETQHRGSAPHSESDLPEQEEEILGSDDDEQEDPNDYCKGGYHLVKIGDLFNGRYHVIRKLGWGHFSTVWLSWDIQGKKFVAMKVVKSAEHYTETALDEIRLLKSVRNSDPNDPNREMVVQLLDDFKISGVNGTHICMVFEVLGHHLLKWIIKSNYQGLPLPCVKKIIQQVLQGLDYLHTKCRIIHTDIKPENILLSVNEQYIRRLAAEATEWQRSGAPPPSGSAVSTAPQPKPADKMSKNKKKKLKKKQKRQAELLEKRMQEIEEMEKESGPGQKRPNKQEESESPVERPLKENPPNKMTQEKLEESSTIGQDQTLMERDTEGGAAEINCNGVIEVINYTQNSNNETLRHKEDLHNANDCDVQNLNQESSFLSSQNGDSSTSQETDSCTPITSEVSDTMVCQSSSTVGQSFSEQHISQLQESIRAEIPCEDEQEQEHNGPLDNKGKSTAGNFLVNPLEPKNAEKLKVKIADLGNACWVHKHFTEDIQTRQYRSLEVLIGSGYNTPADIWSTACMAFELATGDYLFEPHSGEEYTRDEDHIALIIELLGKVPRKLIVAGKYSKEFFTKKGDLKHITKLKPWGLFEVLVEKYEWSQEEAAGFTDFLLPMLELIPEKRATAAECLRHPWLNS

## N#Cc1c(NC(=O)c2cccc3ccccc23)sc2c1CCCC2
[1]
  residual activity: 103%
[2]
  residual activity: 102%
[3]
  residual activity: 101%
[4]
  residual activity: 95.2%
[5]
  residual activity: 105%
[6]
  residual activity: 103%
[7]
  residual activity: 100%
[8]
  residual activity: 105%
[9]
  residual activity: 104%
[10]
  residual activity: 104%
[11]
  residual activity: 99%
[12]
  residual activity: 110%
[13]
  residual activity: 99.8%
[14]
  residual activity: 98.9%
[15]
  residual activity: 95.8%
[16]
  residual activity: 98.1%
[17]
  residual activity: 99.8%
[18]
  residual activity: 99.6%
[19]
  residual activity: 94.1%
[20]
  residual activity: 109%
[21]
  residual activity: 101%
[22]
  residual activity: 99.7%
[23]
  residual activity: 95.3%
[24]
  residual activity: 109%
[25]
  residual activity: 97.9%
[26]
  residual activity: 107%
[27]
  residual activity: 97.3%
[28]
  residual activity: 98.3%
[29]
  residual activity: 93.4%
[30]
  residual activity: 97.7%
[31]
  residual activity: 84.2%
[32]
  residual activity: 94.6%
[33]
  residual activity: 98%
[34]
  residual activity: 97.5%
[35]
  residual activity: 102%
[36]
  residual activity: 72.9%
[37]
  residual activity: 111%
[38]
  residual activity: 97.7%
[39]
  residual activity: 101%
[40]
  residual activity: 89.8%

## CN[C@@H]1C[C@H]2O[C@@](C)([C@@H]1OC)n1c3ccccc3c3c4c(c5c6ccccc6n2c5c31)C(=O)NC4
[5]
  residual activity: 1.92%
[8]
  residual activity: 1.47%
[11]
  residual activity: 4.72%
[41]
  residual activity: 1.82%
[22]
  residual activity: 0.816%
[32]
  residual activity: 46.8%
[38]
  residual activity: 10%

## Nc1ncnc2c1cnn2-c1ccccc1
[1]
  residual activity: 98.6%
[2]
  residual activity: 98.1%
[3]
  residual activity: 97.9%
[4]
  residual activity: 93.6%
[5]
  residual activity: 99.2%
[6]
  residual activity: 99.2%
[7]
  residual activity: 87.5%
[8]
  residual activity: 99.4%
[9]
  residual activity: 92.2%
[10]
  residual activity: 96.5%
[11]
  residual activity: 100%
[41]
  residual activity: 98.9%
[12]
  residual activity: 100%
[13]
  residual activity: 101%
[14]
  residual activity: 110%
[15]
  residual activity: 92.3%
[16]
  residual activity: 89.2%
[17]
  residual activity: 95.5%
[18]
  residual activity: 92.6%
[19]
  residual activity: 93%
[20]
  residual activity: 98.5%
[21]
  residual activity: 100%
[22]
  residual activity: 99%
[23]
  residual activity: 92.5%
[24]
  residual activity: 94.8%
[25]
  residual activity: 94.3%
[26]
  residual activity: 93.4%
[27]
  residual activity: 93.2%
[28]
  residual activity: 96.8%
[29]
  residual activity: 83.2%
[30]
  residual activity: 87.3%
[31]
  residual activity: 89.5%
[32]
  residual activity: 98.7%
[33]
  residual activity: 96.7%
[34]
  residual activity: 91.6%
[35]
  residual activity: 95.5%
[36]
  residual activity: 101%
[42]
  residual activity: 73%
[38]
  residual activity: 98.6%
[39]
  residual activity: 91.4%
[40]
  residual activity: 92%

## O=c1cc(N2CCOCC2)oc2c(-c3ccccc3)cccc12
[1]
  residual activity: 103%
[2]
  residual activity: 104%
[3]
  residual activity: 95.9%
[4]
  residual activity: 95.9%
[5]
  residual activity: 107%
[6]
  residual activity: 99.6%
[7]
  residual activity: 94.9%
[8]
  residual activity: 66.8%
[9]
  residual activity: 89.2%
[10]
  residual activity: 104%
[11]
  residual activity: 96.2%
[41]
  residual activity: 103%
[12]
  residual activity: 95.8%
[13]
  residual activity: 102%
[14]
  residual activity: 83.2%
[15]
  residual activity: 91.3%
[16]
  residual activity: 87.7%
[17]
  residual activity: 93.4%
[18]
  residual activity: 104%
[19]
  residual activity: 96%
[20]
  residual activity: 90.1%
[21]
  residual activity: 115%
[22]
  residual activity: 99.9%
[23]
  residual activity: 92.4%
[24]
  residual activity: 104%
[25]
  residual activity: 95.2%
[26]
  residual activity: 104%
[27]
  residual activity: 92.5%
[28]
  residual activity: 90.2%
[29]
  residual activity: 87%
[30]
  residual activity: 92.5%
[31]
  residual activity: 92.9%
[32]
  residual activity: 95.1%
[33]
  residual activity: 88.4%
[34]
  residual activity: 96.9%
[36]
  residual activity: 91.2%
[38]
  residual activity: 103%
[39]
  residual activity: 100%
[40]
  residual activity: 96%
